Assay [1] relates to primary BMMCs from mice expressing wild-type KIT. Nature of the assay: SCF-stimulated proliferation and KIT tyrosine phosphorylation in primary BMMCs. The format is cell-based. As to conditions: Mus musculus, BMMC, primary murine BMMCs, read-out: IC50, SCF-stimulated cell proliferation and tyrosine phosphorylation of KIT in BMMCs. Here is the method: (B) western blotting analysis of HMC-1α155 tyrosine phosphorylation. […] (D) Western blotting analysis of BMMC tyrosine phosphorylation. Cell proliferation was assessed by WST-1 colorimetric assay. […] MW = molecular weight.

The target of another assay is T1, Fes (Homo sapiens, UniProt P07332).
T1 construct: Fes (2-822; BC035357); 6xHN (N); made in house; host or cells: baculovirus, Sf9 insect cells
Kind of assay: Recombinant kinase ELISA assay, Fes. In kind it is biochemical. As to conditions: recombinant human enzyme; ELISA-based assay, poly(Glu,Tyr 4:1) substrate. How it is done: (§1) Full details for the generation of recombinant human KIT intracellular domain and other protein kinases (including Lyn, platelet derived growth factor receptor β, epidermal growth factor receptor, fibroblast growth factor receptor 1, Src, HCK, PYK, FES, Btk, Bmx, c-Ret, c-Fms, Syk, and c-Met) are provided in the Supplemental Methods (see Supporting Information; Methods S1). Experiments on ABL1, Akt1, protein kinase C-α, insulin-like growth factor receptor 1, and Pim1 were carried out by Proqinase (Germany). All other recombinant protein kinases were performed in-house using an enzyme-linked immunoassay; experimental details are provided in the Supplemental Methods (see Supporting Information; Methods S1).
(§2) The sequences encoding PDGF receptor β (residues 554–1106; GenBank accession no. BC032224), Lyn B (2–583; accession no. BC059394), fibroblast growth factor receptor 1 (572–959; accession no. BC018128), Src (2–536; accession no. BC011566), Btk (2–659; accession no. BC109079), Bmx (2–675; accession no. BC016652), c-Ret (713–1114; accession no. BC004257), c-Fms (538–972; BC047531), Syk (2–612; BC011399), Hck (2-526; accession no. BC014435), Fes (2-822; accession no. BC035357), PYK2 (2-1006; accession no. BC042599) and c-Met (949–1398; accession no. lifeseq3489592) were amplified by PCR from IMAGE cDNA clones purchased from Openbiosystems. […]
On the technique in general: An ELISA detects its analyte on a solid surface through an enzyme-linked reagent.

In assay [2] the target is T2, Proline-rich Tyrosine kinase (FAK2/PYK2) (Homo sapiens, UniProt Q14289).
T2 construct: PYK2 (2-1006; BC042599); 6xHN (N); made in house; host or cells: baculovirus, Sf9 insect cells
Nature of the assay: Recombinant kinase ELISA assay, PYK2. As to conditions: recombinant human enzyme; ELISA-based assay, poly(Glu,Tyr 4:1) substrate. In kind it is biochemical. Here is the method:
as §1, §2

A further assay concerns the target T3, KIT Δ27 (murine) (Mus musculus, UniProt P05532, DEL551-559).
T3 construct: expressed in transfected cells; host or cells: Ba/F3
Nature of the assay: Ba/F3 cell proliferation (WST-1), KIT Δ27. As to conditions: Ba/F3 cells expressing the enzyme, read-out: Cell-based assay IC50, KIT Δ27 (murine).

The next assay addresses Focal adhesion kinase (Homo sapiens, UniProt Q05397). Kind of assay: Recombinant kinase ELISA assay, focal adhesion kinase. The format is biochemical. As to conditions: recombinant human enzyme; ELISA-based assay, poly(Glu,Tyr 4:1) substrate. How it is done:
as §1

The target in the next assay is T4, c-Ret (Homo sapiens, UniProt P07949).
T4 construct: expressed in transfected cells; host or cells: Ba/F3 (general description; not repeated for this kinase)
Nature of the assay: Ba/F3 cell proliferation (WST-1), c-Ret. The following applies: Ba/F3 cells expressing the enzyme, read-out: Cell-based assay IC50, c-Ret. A general note: Tetrazolium assays rely on reduction of a dye to a coloured formazan, in cell work by metabolically active cells.

The test system of assay [3] is EOL1 cells expressing the FIP1L1-PDGFRα chimeric protein. Kind of assay: EOL1 cell proliferation. In kind it is cell-based. The following applies: Homo sapiens, EOL1, read-out: IC50, inhibition of proliferation in EOL1 cells. How it is done: Figures 5C), a hypereosinophilic tumour cell line expressing the FIP1L1-PDGFRα chimeric protein, which is associated with chronic eosinophilic leukaemia.
Cell growth was assessed by WST-1 colorimetric assay. […] (D) Western blotting analysis of EOL1 tyrosine phosphorylation. MW = molecular weight markers.

Assay [4] addresses Fibroblast growth factor receptor 3 (Homo sapiens, UniProt P22607). Nature of the assay: Recombinant kinase ELISA assay, FGFR3. The format is biochemical. As to conditions: recombinant human enzyme; ELISA-based assay, poly(Glu,Tyr 4:1) substrate. Here is the method:
as §1
A 96-well microtitre plate (Immulon 2HB; ThermoLifeScience, Finland) was coated overnight with 0.25 mg/ml poly(Glu,Tyr 4:1), rinsed twice with 250 µl of washing buffer (10 mM phosphate-buffered saline [pH 7.4] and 0.05% Tween 20) and dried for 2 hours at room temperature. […] Reactions were initiated upon introduction of the enzyme and terminated with the addition of one reaction volume (50 μl) of 100 mM EDTA per 5 M urea mix. […] The final reaction product was quantified by spectrophotometry at 450 nm.

A further assay deals with T5, Hck (Homo sapiens, UniProt P08631).
T5 construct: Hck (2-526; BC014435); 6xHN (N); made in house; host or cells: baculovirus, Sf9 insect cells
Nature of the assay: Recombinant kinase ELISA assay, Hck. The format is biochemical. As to conditions: recombinant human enzyme; ELISA-based assay, poly(Glu,Tyr 4:1) substrate. How it is done:
as §1, §2

Another assay has as its target T6, Btk (Homo sapiens, UniProt Q06187).
T6 construct: Btk (2–659; BC109079); 6xHN (N); made in house; host or cells: baculovirus, Sf9 insect cells
Kind of assay: Recombinant kinase ELISA assay, Btk. In kind it is biochemical. The following applies: recombinant human enzyme; ELISA-based assay, poly(Glu,Tyr 4:1) substrate. Here is the method:
as §1, §2

For assay [5], the target named is Fibroblast growth factor receptor 1 (Homo sapiens, UniProt P11362). Kind of assay: Recombinant kinase ELISA assay, FGFR1. In kind it is biochemical. Set-up: fibroblast growth factor receptor 1 (572–959; BC018128); 6xHN (N); made in house; host or cells: baculovirus, Sf9 insect cells. The following applies: recombinant human enzyme; ELISA-based assay, poly(Glu,Tyr 4:1) substrate. How it is done:
as §1, §2

The next assay has as its target T7, Bmx (Homo sapiens, UniProt P51813).
T7 construct: Bmx (2–675; BC016652); 6xHN (N); made in house; host or cells: baculovirus, Sf9 insect cells
Kind of assay: Recombinant kinase ELISA assay, Bmx. The format is biochemical. As to conditions: recombinant human enzyme; ELISA-based assay, poly(Glu,Tyr 4:1) substrate. How it is done: as §1, §2

From article PMC2746281 (PLoS ONE, 2009) come the findings set out here.

A value given as a limit tells only on which side of the number the result lay.

T4 sequence (P07949 29-1114): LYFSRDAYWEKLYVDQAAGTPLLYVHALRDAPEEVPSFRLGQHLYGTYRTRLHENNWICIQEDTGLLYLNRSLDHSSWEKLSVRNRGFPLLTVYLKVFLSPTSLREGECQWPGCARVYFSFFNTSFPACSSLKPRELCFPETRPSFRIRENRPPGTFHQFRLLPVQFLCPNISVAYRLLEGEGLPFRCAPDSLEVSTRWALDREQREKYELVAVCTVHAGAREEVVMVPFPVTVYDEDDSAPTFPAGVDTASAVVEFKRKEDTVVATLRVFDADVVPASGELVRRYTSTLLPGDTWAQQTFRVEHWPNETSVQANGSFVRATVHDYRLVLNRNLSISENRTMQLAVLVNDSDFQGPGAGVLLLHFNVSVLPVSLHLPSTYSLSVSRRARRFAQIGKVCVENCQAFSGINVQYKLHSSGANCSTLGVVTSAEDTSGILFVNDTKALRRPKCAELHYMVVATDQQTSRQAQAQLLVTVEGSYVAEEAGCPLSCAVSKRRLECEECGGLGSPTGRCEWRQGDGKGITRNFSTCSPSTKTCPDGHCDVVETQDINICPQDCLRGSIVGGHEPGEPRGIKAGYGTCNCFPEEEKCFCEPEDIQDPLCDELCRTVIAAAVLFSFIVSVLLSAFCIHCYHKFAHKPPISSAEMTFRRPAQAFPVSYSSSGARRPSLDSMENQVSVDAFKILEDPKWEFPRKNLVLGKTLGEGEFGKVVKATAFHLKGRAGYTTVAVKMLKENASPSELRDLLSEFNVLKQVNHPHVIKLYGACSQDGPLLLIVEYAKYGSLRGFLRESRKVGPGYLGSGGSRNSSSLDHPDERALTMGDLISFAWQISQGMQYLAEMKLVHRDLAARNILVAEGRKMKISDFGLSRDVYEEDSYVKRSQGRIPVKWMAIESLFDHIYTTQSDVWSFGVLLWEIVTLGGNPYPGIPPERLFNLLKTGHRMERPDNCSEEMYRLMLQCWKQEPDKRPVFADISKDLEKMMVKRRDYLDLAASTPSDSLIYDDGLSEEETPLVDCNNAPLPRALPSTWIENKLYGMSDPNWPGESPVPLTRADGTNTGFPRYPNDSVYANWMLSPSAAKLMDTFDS
T1 sequence (P07332 2-822): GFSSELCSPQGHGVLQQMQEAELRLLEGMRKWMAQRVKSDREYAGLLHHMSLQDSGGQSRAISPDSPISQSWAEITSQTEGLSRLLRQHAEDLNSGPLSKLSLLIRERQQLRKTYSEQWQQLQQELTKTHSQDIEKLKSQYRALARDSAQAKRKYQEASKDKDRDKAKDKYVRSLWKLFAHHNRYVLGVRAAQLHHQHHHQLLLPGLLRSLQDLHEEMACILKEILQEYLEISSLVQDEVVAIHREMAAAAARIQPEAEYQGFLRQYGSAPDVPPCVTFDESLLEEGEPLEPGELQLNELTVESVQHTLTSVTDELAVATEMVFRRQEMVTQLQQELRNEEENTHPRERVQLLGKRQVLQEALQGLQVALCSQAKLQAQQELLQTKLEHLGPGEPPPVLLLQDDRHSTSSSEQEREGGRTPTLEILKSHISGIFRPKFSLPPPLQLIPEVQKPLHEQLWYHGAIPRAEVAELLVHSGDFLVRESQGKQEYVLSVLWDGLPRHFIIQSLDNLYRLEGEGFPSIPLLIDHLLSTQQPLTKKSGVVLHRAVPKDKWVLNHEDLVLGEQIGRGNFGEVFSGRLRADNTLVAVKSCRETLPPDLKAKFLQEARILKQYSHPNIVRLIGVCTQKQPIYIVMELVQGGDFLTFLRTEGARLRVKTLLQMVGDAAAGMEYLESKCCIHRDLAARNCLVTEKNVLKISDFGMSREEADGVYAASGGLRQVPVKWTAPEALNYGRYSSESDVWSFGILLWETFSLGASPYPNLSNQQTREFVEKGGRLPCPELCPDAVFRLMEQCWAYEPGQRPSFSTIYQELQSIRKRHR
Sequence of Fibroblast growth factor receptor 1 (P11362 434-822 limits assumed): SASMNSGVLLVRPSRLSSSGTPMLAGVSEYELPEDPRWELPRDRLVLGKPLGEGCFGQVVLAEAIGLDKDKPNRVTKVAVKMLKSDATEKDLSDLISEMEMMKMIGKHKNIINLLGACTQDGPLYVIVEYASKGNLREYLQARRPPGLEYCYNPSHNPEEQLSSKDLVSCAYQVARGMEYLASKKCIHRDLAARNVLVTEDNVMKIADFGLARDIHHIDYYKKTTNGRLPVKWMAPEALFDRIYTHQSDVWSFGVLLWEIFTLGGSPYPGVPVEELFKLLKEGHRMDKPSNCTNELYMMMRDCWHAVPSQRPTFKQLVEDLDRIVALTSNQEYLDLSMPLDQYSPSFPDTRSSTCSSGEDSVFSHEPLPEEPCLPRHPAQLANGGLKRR
T5 sequence (P08631 23-526 limits assumed): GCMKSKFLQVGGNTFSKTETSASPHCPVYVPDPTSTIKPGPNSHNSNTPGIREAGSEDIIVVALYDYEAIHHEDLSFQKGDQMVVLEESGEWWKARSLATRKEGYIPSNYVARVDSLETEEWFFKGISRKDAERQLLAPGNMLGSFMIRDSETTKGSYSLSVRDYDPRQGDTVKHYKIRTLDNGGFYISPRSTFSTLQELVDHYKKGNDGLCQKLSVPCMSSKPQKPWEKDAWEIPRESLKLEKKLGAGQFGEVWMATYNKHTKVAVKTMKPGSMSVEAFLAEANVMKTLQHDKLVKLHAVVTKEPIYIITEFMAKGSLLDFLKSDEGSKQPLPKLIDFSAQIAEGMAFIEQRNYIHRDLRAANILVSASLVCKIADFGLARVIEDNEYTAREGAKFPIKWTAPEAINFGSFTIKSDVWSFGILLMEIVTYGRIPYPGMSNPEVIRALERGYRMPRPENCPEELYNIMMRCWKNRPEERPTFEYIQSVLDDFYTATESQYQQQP
T6 sequence (Q06187 2-659): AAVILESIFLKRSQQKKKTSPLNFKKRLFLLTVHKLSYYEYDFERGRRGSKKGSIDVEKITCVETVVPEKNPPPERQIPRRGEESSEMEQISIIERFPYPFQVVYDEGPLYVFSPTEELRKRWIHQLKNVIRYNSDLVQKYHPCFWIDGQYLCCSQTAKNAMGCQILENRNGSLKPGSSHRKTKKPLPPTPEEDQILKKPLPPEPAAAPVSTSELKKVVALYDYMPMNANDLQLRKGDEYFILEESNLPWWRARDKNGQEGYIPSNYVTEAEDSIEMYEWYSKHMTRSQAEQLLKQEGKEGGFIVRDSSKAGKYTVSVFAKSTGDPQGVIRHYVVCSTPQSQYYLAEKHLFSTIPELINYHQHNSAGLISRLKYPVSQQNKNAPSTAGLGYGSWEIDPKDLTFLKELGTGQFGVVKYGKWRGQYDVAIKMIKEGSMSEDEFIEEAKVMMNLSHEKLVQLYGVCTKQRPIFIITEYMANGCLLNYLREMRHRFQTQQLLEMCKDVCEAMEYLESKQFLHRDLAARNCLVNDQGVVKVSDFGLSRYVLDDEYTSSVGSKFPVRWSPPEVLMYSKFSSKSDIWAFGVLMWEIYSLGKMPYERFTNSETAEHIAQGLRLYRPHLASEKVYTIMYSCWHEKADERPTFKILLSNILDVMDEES
Sequence of Focal adhesion kinase (Q05397 whole entry): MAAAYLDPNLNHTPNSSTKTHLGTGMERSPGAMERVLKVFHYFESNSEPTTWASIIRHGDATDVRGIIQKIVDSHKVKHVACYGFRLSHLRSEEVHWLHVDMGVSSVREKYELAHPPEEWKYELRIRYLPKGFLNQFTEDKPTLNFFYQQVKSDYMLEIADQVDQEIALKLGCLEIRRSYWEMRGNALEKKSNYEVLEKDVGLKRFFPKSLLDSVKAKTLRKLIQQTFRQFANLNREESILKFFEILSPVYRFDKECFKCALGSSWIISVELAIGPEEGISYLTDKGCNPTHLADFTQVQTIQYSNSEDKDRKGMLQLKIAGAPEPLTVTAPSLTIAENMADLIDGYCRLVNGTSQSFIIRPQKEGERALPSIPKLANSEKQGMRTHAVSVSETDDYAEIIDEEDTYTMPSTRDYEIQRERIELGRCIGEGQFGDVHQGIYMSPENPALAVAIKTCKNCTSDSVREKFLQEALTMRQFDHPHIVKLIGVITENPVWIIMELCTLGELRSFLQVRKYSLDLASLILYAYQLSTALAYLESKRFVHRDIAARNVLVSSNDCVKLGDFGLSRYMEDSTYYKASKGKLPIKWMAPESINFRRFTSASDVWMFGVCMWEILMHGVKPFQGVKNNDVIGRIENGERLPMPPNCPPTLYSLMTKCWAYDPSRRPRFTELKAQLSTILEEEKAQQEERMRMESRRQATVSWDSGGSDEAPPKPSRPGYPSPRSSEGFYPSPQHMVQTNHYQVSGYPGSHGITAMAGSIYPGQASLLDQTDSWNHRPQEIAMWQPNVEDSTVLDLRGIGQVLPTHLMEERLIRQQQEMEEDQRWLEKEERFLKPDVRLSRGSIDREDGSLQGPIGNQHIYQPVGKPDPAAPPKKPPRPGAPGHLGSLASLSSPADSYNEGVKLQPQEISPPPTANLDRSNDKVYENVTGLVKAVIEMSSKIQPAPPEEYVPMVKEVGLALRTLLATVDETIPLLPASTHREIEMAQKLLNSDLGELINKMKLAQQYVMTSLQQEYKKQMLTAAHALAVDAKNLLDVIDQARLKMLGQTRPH

For the compound `CS(=O)(=O)O.CS(=O)(=O)O.Cc1ccc(NC(=O)c2ccc(CN3CCN(C)CC3)cc2)cc1Nc1nc(-c2cccnc2)cs1` [masitinib, 4-(4-methylpiperazin-1-ylmethyl)-N-[4-methyl-3-(4-pyridin-3ylthiazol-2-ylamino)phenyl]benzamide-mesylate methane sulfonic acid salt], the IC50 is 0.2 ± 0.05 µM in assay [1]; over 10 µM on Fes; over 10 µM in assay [2]; 0.005 ± 0.0003 µM at KIT Δ27 (murine); over 10 µM at Focal adhesion kinase; 8 ± 1.2 µM at c-Ret. For the same compound, the IC50 is 0.0002 ± 0.0001 µM in [3]; over 10 µM in assay [4]; 2 ± 0.2 µM at Hck; over 10 µM on Btk; over 10 µM in assay [5]; over 10 µM on Bmx.
